Measured values as given in US20130189764A1, “SELECTIVE GROWTH MEDIA” (Oxide Limited, priority 2000, published 2013).
Converted amounts (≈) assume the structure as drawn.

Key:
[1] = tested on: Citrobacter freundii 370; assay: MIC in DMSal medium (Example 17); type: cell-based; settings: Citrobacter freundii 370, DMSal medium
[2] = tested on: Enterobacter sakazakii 1888; assay: MIC in DMSal medium (Example 17); type: cell-based; settings: Enterobacter sakazakii 1888, DMSal medium
[3] = tested on: E. coli 607; assay: MIC in DMSal medium (Example 17); type: cell-based; settings: E. coli 607, DMSal medium
[4] = tested on: Salmonella typhimurium 722; assay: MIC in DMSal medium (Example 17); type: cell-based; settings: for MIC: Salmonella typhimurium 722, DMSal medium; for effect on growth of Salmonella typhimurium: DMSal
Protocol: (§1) Isoleucyl-AEP and sarcosyl-alanyl-AEP were compared to ala-AEP (all in DMSal medium) for the ability to selectively recover two clinically important pathogenic bacteria: Salmonella and Staphylococcus aureus.
(§2) For selective growth of Salmonella inhibition of Citrobacter, Enterobacter sakazakii and E. coli is important. […] Sarcosyl-alanyl-AEP used at a concentration of 1.0 μg/ml is sufficient to inhibit the growth of all three undesired bacteria while having no effect on growth of Salmonella typhimurium. […] Alternatively, a concentration of 2.0 μg/ml of isoleucyl-AEP is required to inhibit the growth of Citrobacter, Enterobacter sakazakii and E. coli and this concentration has no effect on the Salmonella typhimurium strain tested.

[5] = tested on: Enterococcus faecalis 501; assay: MIC in DMSal medium (Example 17); type: cell-based; settings: Enterococcus faecalis 501, DMSal medium
[6] = tested on: Enterococcus faecalis 581; assay: MIC in DMSal medium (Example 17); type: cell-based; settings: Enterococcus faecalis 581, DMSal medium
Text: as §1

[7] = tested on: S. aureus (MRSA) 934; assay: MIC in DMSal medium (Example 17); type: cell-based; settings: S. aureus (MRSA) 934, DMSal medium
Text: as §1

[8] = tested on: S. aureus 198; assay: MIC in DMSal medium (Example 17); type: cell-based; settings: S. aureus 198, DMSal medium
Text: as §1

[9] = tested on: S. aureus ss aureus 2355; assay: MIC in DMSal medium (Example 17); type: cell-based; settings: S. aureus ss aureus 2355, DMSal medium
Text: as §1

[10] = tested on: Enterococcus faecalis 640; assay: MIC in DMSal medium (Example 17); type: cell-based; settings: Enterococcus faecalis 640, DMSal medium
[11] = tested on: Enterococcus faecium 220; assay: MIC in DMSal medium (Example 17); type: cell-based; settings: Enterococcus faecium 220, DMSal medium
[12] = tested on: Citrobacter, Enterobacter sakazakii and E. coli; assay: inhibition of the three undesired bacteria in DMSal (Example 17); type: cell-based
Protocol: as §1, §2

[13] = log octanol/water; footnote a: Leo et al (1971); cited from earlier work
[14] = tested on: Bacillus subtilis strain OCC 214; assay: growth on nutrient agar streak plates, pure culture (Example 1); type: cell-based; settings: B. subtilis OCC214, nutrient agar, 0-10 mM tested
Text: In example 1 the sensitivity of Bacillus subtilis strain OCC 214 to alaphosphin or AEP was investigated. […] The organism is known to be LALA-ve, so the observations agree with the known characteristics of the organism.

[15] = tested on: Salmonella typhimurium OCC 1870; assay: growth on nutrient agar streak plates, pure culture (Example 2); type: cell-based; settings: S. typhimurium OCC 1870, nutrient agar, 0-10 mM tested
Text: Example 1 was repeated, using Salmonella typhimurium OCC 1870 as the test organism. The results are shown in FIG. 3, which uses the same key as FIG. 2.

[16] = tested on: Enterococcus faecalis OCC 640; assay: growth on nutrient agar streak plates, pure culture (Example 3); type: cell-based; settings: E. faecalis OCC 640, nutrient agar, 0-10 mM tested
Text: Example 1 was repeated using Enterococcus faecalis OCC 640 as the test organism.

[17] = tested on: Klebsiella pneumoniae CMCC 3077; assay: growth on nutrient agar streak plates, pure culture (Example 4); type: cell-based; settings: K. pneumoniae CMCC 3077, nutrient agar, 0-10 mM tested
Text: Example 1 was repeated using Klebsiella pneumoniae CMCC 3077 as the test organism. The results are shown in FIG. 5, and are qualitatively similar to those obtained in example 2.

[18] = tested on: Staphylococcus aureus OCC 102; assay: growth on nutrient agar streak plates, pure culture (Example 5); type: cell-based; settings: S. aureus OCC 102, nutrient agar, all concentrations tested (up to 10 mM)
Text: Example 1 was repeated using Staphylococcus aureus OCC 102 as the test organism.

[19] = tested on: K. pneumoniae CMCC 3077; assay: growth on nutrient agar, mixed culture with S. aureus (Example 6); type: cell-based, Klebsiella pneumoniae
Text: (§3) Example 1 was repeated, this time using a mixed culture of K. pneumoniae CMCC 3077 and S. aureus OCC 102. The results for growth in the presence of AEP or alaphosphin are shown in FIGS. 7 and 8 respectively: empty columns represent growth of S. aureus, the shaded columns represent growth of K. pneumoniae. […] Accordingly, there is a considerable alaphosphin concentration range over which S. aureus will readily grow whilst K. pneumoniae will be inhibited. Even if K. pneumoniae cells lyse due to the toxic effect of AEP released intracellularly, the AEP is not toxic for S. aureus at the concentrations involved.

[20] = tested on: S. aureus OCC 102; assay: growth on nutrient agar, mixed culture with K. pneumoniae (Example 6); type: cell-based, Staphylococcus aureus
Text: as §3

[21] = tested on: B. subtilis OCC 214; assay: growth on nutrient agar, mixed culture with K. pneumoniae (Example 8); type: cell-based, Bacillus subtilis; settings: B. subtilis in mixed culture with K. pneumoniae
Text: (§4) Example 6 was repeated, this time using a mixed culture of B. subtilis OCC 214 and K. pneumoniae CMCC 3077, in the presence of AEP or alaphosphin. The empty columns show the growth of B. subtilis, the shaded columns denote growth of K. pneumoniae.

[22] = tested on: K. pneumoniae CMCC 3077; assay: growth on nutrient agar, mixed culture with B. subtilis (Example 8); type: cell-based, Klebsiella pneumoniae; settings: all concentrations tested
Text: as §4

[23] = tested on: Klebsiella pneumoniae CMCC3077; assay: total viable count in Nutrient Broth (Example 10); type: cell-based; settings: 5 mM in Nutrient Broth, 37° C.
Protocol: Growth curve data on the activity of alaphosphin towards Klebsiella spp. was generated. Particular attention was paid to measuring the kinetics of inhibition in broth culture. The media used in this work were Buffered Peptone Water, Nutrient Broth and Tryptone Soya Agar. The media were prepared according to the manufacturer's instructions.
The selective agents, AEP (Cat. No. 06655) and alaphosphin (Cat. No. 05260), were supplied by Fluka. They were dissolved in water at 0.5M concentration, filter-sterilised, and 100 μl added to 10 ml of Nutrient Broth to give a final concentration in the test medium of 5 mM of AEP or alaphosphin respectively.
Klebsiella pneumnoniae CMCC3077 was chosen, as it is a food isolate and work had been carried out previously on this organism using alaphosphin and AEP (see preceding examples). The organism was inoculated into Nutrient Broth and incubated overnight at 37° C. […] The test media were incubated at 37° C., and sampled at hourly intervals. The cultures were serially diluted in Buffered Peptone Water and inoculated onto Tryptone Soya Agar. These plates were incubated overnight at 37° C. and the total viable count made the next day.
Typical results are shown in FIG. 15 which is a graph of total viable count (log10 cfu/ml) against time (hours).

[24] = tested on: heat stressed Salmonella typhimurium (OCC 1792); assay: resuscitation of heat-stressed cells, microtitre MPN method (Example 14); type: cell-based; settings: BPW supplemented with 3 different levels of AEP, relative to BPW alone
Protocol: Salmonella typhimurium (OCC 1792) was heat stressed at 51.4° C. for 25 minutes according to the protocol of Stephens et al. (1997 J. Appl. Micro. 8, 445-455). Cells were diluted in 7 different resuscitation media: yeast extract broth with a high reactive oxygen species content that is inhibitory to stressed cells, SPRINT enrichment broth supplemented with Oxyrase that is an optimised resuscitation medium, BPW as the control that has typical resuscitation properties, BPW supplemented with NaCl that is inhibitory to stressed cells, and BPW supplemented with 3 different levels of AEP. Resuscitation was quantified using a microtitre MPN method.
Typical results are shown in FIG. 20 which is a bar chart showing the difference in growth (Log cfu/ml) of the stressed cells in various media relative to growth in BPW alone.

[25] = tested on: Salmonella typhimurium OCC 722; assay: Bioscreen growth, comparison with conventional selective agents (Example 12); type: cell-based; settings: Buffered Peptone Water pH 6.8
Protocol: (§5) The following is an example to illustrate the beneficial lower toxic properties of the new selective agents towards the target microorganism, in this case Salmonella. Two selective agents, cefsulodin and novobiocin, as used conventionally in Salmonella isolation from foods (Humphrey and Whitehead, 1992 British Poultry Science 33, 761-768) were compared with alaphosphin. All were dissolved in deionised water, filter sterilised, and an amount of the solution added to either autoclaved Lab-Lemco broth+phosphate buffer (20 g/l; pH 6.0; ala-AEP) or Buffered Peptone Water (pH 6.8; cefsulodin and novobiocin) to give final concentrations of 66, 16.5 and 11 μg/ml respectively. [The different pH values reflect the different pH optima of the selective agents (ala-AEP was also subsequently used in BPW at pH 6.8 and similar results obtained)]. Volumes (300 μl) were then pipetted into the wells of Bioscreen microtitre plates and 30 μl quantities of 1 in 10,000 dilutions of overnight cultures of E. coli OCC 2129 and Salmonella typhimurium OCC 722, added. Plates were then covered, incubated at 37° C., and the opacity of the organism suspensions measured using a Bioscreen instrument.
(§6) Typical results are shown in FIGS. 17-19, which are graphs of optical density against time for S. typhimurium (circles) and E. coli (squares) in the presence (empty symbols) or absence (filled symbols) of 15 μg/ml cefsulodin (FIG. 17), 10 μg/ml novobiocin (FIG. 18) or 60 μg/ml alaphosphin (FIG. 19).

[26] = tested on: E. coli OCC 2129; assay: as above; type: cell-based, Escherichia coli; settings: at 12 hours
Protocol: as §5, §6

SMILES: CNCC(=O)NC(C)C(=O)NC(C)P(=O)(O)O (centres unmarked)
- MIC [1]: 1.0 µg/mL (≈ 3.74 µM)
- MIC [2]: 0.01 µg/mL (≈ 0.0374 µM)
- MIC [3]: 0.05 µg/mL (≈ 0.187 µM)
- MIC [4]: 2.0 µg/mL (≈ 7.48 µM)
- effect on growth of Salmonella typhimurium ([4]; sarcosyl-alanyl-AEP at 1.0 μg/ml): no effect
- MIC [5]: 8 µg/mL (≈ 29.9 µM)
- MIC [6]: 8 µg/mL (≈ 29.9 µM)
- MIC [7]: >100 µg/mL
- MIC [8]: >100 µg/mL
- MIC [9]: >100 µg/mL
- MIC [10]: 16 µg/mL (≈ 59.9 µM)
- MIC [11]: >256 µg/mL
- concentration sufficient / required to inhibit the growth of all three undesired bacteria [12]: 1.0 µg/mL

SMILES: O=[N+]([O-])c1ccccc1O [2-nitrophenol]
- Log Partition Coefficient [13]: 2.00^a

SMILES: CC(N)P(=O)(O)O [AEP, L-1-aminoethylphosphonic acid, reference compound]
- concentration at which growth is inhibited [14]: ≥ 5 mM
- concentration at which growth is completely inhibited [15]: > 10 mM
- concentration at which growth is completely inhibited [16]: ≥ 5 mM
- concentration at which growth is completely inhibited [17]: > 10 mM
- sensitivity of growth (in words) [18]: completely insensitive
- inhibition of growth (in words) [19]: neither organism was inhibited
- inhibition of growth (in words) [20]: neither organism was inhibited
- concentration above which some sensitivity is exhibited [21]: above 5 mM
- sensitivity of growth (in words) [22]: insensitive
- effect on growth compared with Nutrient Broth control [23]: little effect
- effect on resuscitation of heat-stressed Salmonella [24]: did not significantly affect

SMILES: Nc1ccccc1 [Aniline]
- Log Partition Coefficient [13]: 0.94^a

SMILES: NC(=O)c1cc[n+](CC2=C(C(=O)O)N3C(=O)[C@@H](NC(=O)[C@@H](c4ccccc4)S(=O)(=O)[O-])[C@H]3SC2)cc1 [cefsulodin]
- effect on growth of S. typhimurium ([25]; 15 μg/ml cefsulodin): significantly inhibit
- growth of E. coli relative to S. typhimurium ([26]; 15 μg/ml cefsulodin): substantially outgrows

SMILES: CCC(C)C(N)C(=O)NC(C)P(=O)(O)O (centres unmarked) [isoleucyl-AEP, Isoleucyl-AEP]
- MIC [1]: 2.0 µg/mL (≈ 8.4 µM)
- MIC [2]: 2.0 µg/mL (≈ 8.4 µM)
- MIC [3]: 2.0 µg/mL (≈ 8.4 µM)
- MIC [4]: 10 µg/mL (≈ 42 µM)
- effect on growth of Salmonella typhimurium ([4]; isoleucyl-AEP at 2.0 μg/ml): no effect
- MIC [5]: 5 µg/mL (≈ 21 µM)
- MIC [6]: 5 µg/mL (≈ 21 µM)
- MIC [9]: >200 µg/mL
- MIC [10]: 5 µg/mL (≈ 21 µM)
- MIC [11]: 5 µg/mL (≈ 21 µM)
- concentration sufficient / required to inhibit the growth of all three undesired bacteria [12]: 2.0 µg/mL

SMILES: CO[C@@H]1[C@@H](OC(N)=O)[C@@H](O)[C@H](Oc2ccc3c(O)c(NC(=O)c4ccc(O)c(CC=C(C)C)c4)c(=O)oc3c2C)OC1(C)C [novobiocin]
- effect on growth of S. typhimurium ([25]; 10 μg/ml novobiocin): significantly inhibit
- growth of E. coli relative to S. typhimurium ([26]; 10 μg/ml novobiocin): substantially outgrows
